Measurements published in article PMC6362038, “Secondary structures and cell-penetrating abilities of arginine-rich peptide foldamers” (Scientific Reports, 2019).
Peptide text beside a SMILES is read from it. * marks the point of attachment. 5FAM = O=C1OC2(c3ccc(O)cc3Oc3cc(O)ccc32)c2ccc(C(=O)*)cc21

Legend:
[1] = Circular dichroism, R value of secondary structure; assay type: physicochemical; conditions: CD, peptide 24 µM
Protocol: The conformations of peptides were analyzed by circular dichroism (CD) in pH 7.3 4-(2-hydroxyethyl)-1-piperazineethanesulfonic acid (HEPES) buffer (Fig. 3a), 40% 2,2,2-trifluoroethanol (TFE)/pH 7.3 HEPES buffer (Fig. 3b), and 75% TFE/pH 7.3 HEPES buffer (Fig. 3c). Negative maxima at 205–209 nm (π → π*) and 222–225 nm (n → π*) were diagnostic of a right-handed (P) helical structure[31]–[33]. The ratio of R (θπ → π*/θn → π*) has been used as a parameter to distinguish an α-helical structure from a 3_10-helical structure (i.e., R ≈ 1: α-helix; R < 0.4: 3_10-helix) (Table S1)[34],[35]. Helical content (helicity) of peptides was estimated from the intensity of θn → π* values. A negative maximum at 195–200 nm (π → π*) and a weak positive maximum at 217 nm (n → π*) were diagnostic of a random coil structure. […] By adding TFE to HEPES buffer, (αMe)Leu peptide formed a complete right-handed (P) helical structure in a mixture of α- and 3_10-helices (R = 0.57 and 0.56 in Figs 3b and […], respectively). The dominant structures of Ac5c and Leu peptides changed by increased the rate of TFE to eventually be α-/3_10-helices (R = 0.52) and 3_10-helix (R = 0.30), respectively (Fig. 3c). […] Cbz-[L-Leu-L-Leu-(S,S)-Ac5c^dOM]3-OMe was reported to form a right-handed (P) helical structure in 50% TFE/H2O[37]. L-Leu might contribute to stabilization of the peptide helical secondary structure as well as (S,S)-Ac5c^dOM. Destabilization of the peptide helical secondary structure by L-Arg might be stronger than stabilization of it by (S,S)-Ac5c^dOM. Taken together with the results of CD spectra (Fig. 3), in which helicity of peptides was estimated from the intensity of θn → π* values, stability in the helicity of the peptides in the current study was as follows: (αMe)Leupeptide>Ac5cpeptide≈Leupeptide>Ac5c^dOMpeptide≈Argpeptide.
Figure 3 CD spectra of peptides in (a) HEPES buffer, (b) 40% TFE/HEPES buffer, and (c) 75% TFE/HEPES buffer. Peptide concentration: 24 µM.
Optical rotation [α]^rtD was measured using a Jasco DIP-370 polarimeter (JASCO, Tokyo, Japan) using a 0.5 dm cell. Infrared (IR) spectra were recorded using a Shimadzu IR Affinity-1 spectrometer (Shimadzu Corporation, Kyoto, Japan) for conventional measurement (KBr). CD spectra were recorded using a Jasco J-720W spectropolarimeter (JASCO) with a 1.0 mm path length cell. ^1H NMR (400 MHz) and ^13C NMR (100 MHz) spectra were determined using a JEOL AL 400 spectrometer (JEOL Ltd, Tokyo, Japan). Fast atom bombardment (FAB)-MS was measured using a JEOL JMS-700N (JEOL). MALDI-TOF-MS spectra were recorded using a Bruker Ultrax spectrometer (Bruker Daltonics, Fermont, CA). Piperidine was purchased from Tokyo Chemical Industry Co., Ltd. (Tokyo, Japan). Fmoc-L-Arg(Pbf)-OH, Fmoc-Gly-OH, Fmoc-L-Leu-OH, and CLEAR-Amide resin were purchased from the Peptide Institute., Inc. (Osaka, Japan). Fmoc-(S)-(αMe)Leu-OH was obtained from Nagase & Co., Ltd. (Kyoto, Japan). Fmoc-Ac5c-OH was purchased from Watanabe Chemical Industries, Ltd. (Hiroshima, Japan). HATU, HBTU, HOAt, and HOBt were from AAPPTec (Louisville, KY). COMU was from Novabiochem (Tokyo, Japan). CF and Dulbecco’s modified Eagle’s medium (DMEM) were obtained from Sigma-Aldrich Co. (St. Louis, MO). diisopropylethylamine (DIPEA) and heparin were purchased from Wako Pure Chemicals Co., Inc. (Osaka, Japan). Diethyl ether was from Kanto Chemical Co., Inc. (Tokyo, Japan). Trifluoroacetic acid (TFA) was obtained from Nacalai Tesque, Co., Inc. (Kyoto, Japan). Hoechst 33342 and a Cell counting kit-8 were purchased from Dojindo Laboratories (Kumamoto, Japan). LysoTracker Red was from Molecular Probes (Eugene, OR).
Table S1. R values (qπ → π*/qn → π*) of synthetic peptides.
R value (qπ → π*/qn → π* )
HEPES 40% TFE/HEPES 75% TFE/HEPES

HeLa cells [2] = assay: Cellular uptake of CF-labeled peptides into HeLa cells (flow cytometry); assay type: cell-based; conditions: 1 µM peptide, 2, 6 and 24 h, DMEM 10% FBS, heparin wash, trypsinized, flow cytometry fluorescence, mean of n = 3
Protocol: Cellular uptake of peptides was assessed against HeLa (Fig. 5a) and CHO-K1 cells (Fig. 5b) at a concentration of 1 µM and various incubation times (2, 6, and 24 h). […] Not only stabilities against protease digestion but also other factors might contribute to prolongation of the cell-penetrating ability of peptides. […] The number of Arg residues in Arg-rich peptides is very important for their cell-penetrating ability, and six Arg are not enough. […] Substitution of Arg in Arg peptide with Ac5c, Ac5c^dOM, or (αMe)Leu positively affected its cell-penetrating ability compared with Aib. In comparison, among the peptides containing dAAs, (αMe)Leu peptide was the best for HeLa cell, Ac5c peptide was the best for CHO-K1 cell, and Ac5c^dOM peptide was the worst for both cell types (Fig. 5). Although the best peptides were different depending on cell type, the worst peptide was same for both cell types. […] Taken together, a stable helical structure by introducing dAAs into Arg-rich peptide enhanced their cell-penetrating abilities.
HeLa or CHO-K1 cells were seeded on 24-well culture plates (100,000 cells/well) and incubated in 400 µL of DMEM containing 10% FBS. The medium was then replaced with fresh medium, and a peptide solution was added to each well at a concentration of 1 µM. After each incubation time, the medium was removed and cells were washed with ice-cold PBS with heparin (20 units/mL) and trypsinized. After the addition of medium containing 10% FBS, fluorescence intensity was detected and acquired using an On-chip Flow (On-chip Biotechnologies Co., Ltd, Tokyo, Japan). The results are presented as a mean and standard deviation obtained from 3 samples.

[3] = Resistance to protease digestion with pronase; assay type: in vitro ADME, Streptomyces griseus; conditions: 10 µM peptide in 2.5 × 10^−6 w/v% pronase/PBS, 37 °C, RP-HPLC, α-CHCA internal standard, read-out: intact peptide after incubation with pronase
Description: (§1) Next, we examined the stability of peptides against protease digestion using trypsin (Fig. 4a) and pronase (Fig. 4b). One of the advantages of peptide foldamers containing dAAs is their high resistance to degradation by proteases[38]–[40]. Trypsin is a serine protease that cleaves amide bonds at the C terminus of cationic amino acids such as Arg and lysine. Pronase is a non-specific protease mixture produced in the culture supernatant of Streptomyces griseus. Ac5c, Ac5c^dOM, (αMe)Leu, and Leu peptides were incubated with trypsin or pronase for 1, 2, and 4 h, and then rate of intact peptide was evaluated by RP-HPLC using α-cyano-4-hydroxycinnamic acid (α-CHCA) as an internal standard. Leu peptide was promptly degraded by both trypsin and pronase, and reached 0% intact peptide after 4 h incubation in a similar manner to Arg peptide reported previously[24],[25]. On the other hand, approximately 80% of Ac5c, Ac5c^dOM, and (αMe)Leu peptides remained intact even after 4 h incubation. Introduction of dAAs into peptides markedly elevated resistance to protease digestion, whether or not peptides formed stable helical structures. In other words, peptides composed of only natural α-amino acids were easily degraded by proteases independently of their peptide secondary structures.
(§2) One-hundred microliters of peptide solution (10 µM) in 2.5 × 10^−6 w/v% trypsin or pronase/phosphate buffer saline (PBS) was incubated at 37 °C for 0, 1, 2, and 4 h. After each incubation time, 250 µL of 1% TFA/PBS solution was added to inactivate the proteases, and 50 µL of 1/2 diluted saturated α-CHCA solution was added as an internal standard, followed by HPLC analysis, which was performed using the above-mentioned conditions.

[4] = Resistance to protease digestion with trypsin; assay type: in vitro ADME; conditions: 10 µM peptide in 2.5 × 10^−6 w/v% trypsin/PBS, 37 °C, RP-HPLC, α-CHCA internal standard, read-out: intact peptide after incubation with trypsin
Description: as §1, §2

HeLa cells [5] = conditions: 24 h incubation; cited from earlier work
Protocol: Cellular uptake of peptides was assessed against HeLa (Fig. 5a) and CHO-K1 cells (Fig. 5b) at a concentration of 1 µM and various incubation times (2, 6, and 24 h). […] Furthermore, the cellular uptake of Ac5c^dOM peptide increased up t ...

Compound	R value (θπ → π*/θn → π*) ([1]; 40% TFE/pH 7.3 HEPES buffer)	R value (θπ → π*/θn → π*) ([1]; 75% TFE/pH 7.3 HEPES buffer)	R value (θπ → π*/θn → π*) ([1]; pH 7.3 HEPES buffer, R ≈ 1 α-helix, R < 0.4 3_10-helix)	cellular uptake, course over incubation time (HeLa cells [2])	remaining at 4 h, 10 µM [3]	remaining at 4 h, 10 µM [4]	cell-penetrating ability compared with Arg nonapeptide (HeLa cells [5])
CC(C)C[C@H](NC(=O)[C@H](CCCNC(=N)N)NC(=O)[C@H](CCCNC(=N)N)NC(=O)[C@H](CC(C)C)NC(=O)[C@H](CCCNC(=N)N)NC(=O)[C@H](CCCNC(=N)N)NC(=O)[C@H](CC(C)C)NC(=O)[C@H](CCCNC(=N)N)NC(=O)[C@H](CCCNC(=N)N)NC(=O)CNC(=O)c1ccc2c(c1)C(=O)OC21c2ccc(O)cc2Oc2cc(O)ccc21)C(N)=O [Leu peptide] (5FAM-GRRLRRLRRL-NH2)	0.26	0.30	No significant maxima	small decrease	0%	0%	–
(L-Arg-L-Arg-Aib)3 [(L-Arg-L-Arg-Aib)3 nonapeptide]	–	–	–	–	–	–	much lower cell-penetrating ability than Arg nonapeptide
